Experiment: xn = mol fraction of the nth substance listed

CC(C)(C)N + NC1CCCCC1
298.15 K, 101 kPa
Conditions	viscosity [mPa·s]
x2 = 0.0757	0.569
x2 = 0.1557	0.7445
x2 = 0.2401	0.9554
x2 = 0.3296	1.173
x2 = 0.4244	1.407
x2 = 0.5252	1.612
x2 = 0.6324	1.785
x2 = 0.7468	1.894
x2 = 0.8691	1.915

C=Cc1ccccc1 + CCCCCCCC
Conditions	viscosity [mPa·s]
293.15 K, 101 kPa, x1 = 0.622	0.585
298.15 K, 101 kPa, x1 = 0.622	0.55
298.15 K, 101.33 kPa, x1 = 0.1009	0.512
298.15 K, 101.33 kPa, x1 = 0.1995	0.514
298.15 K, 101.33 kPa, x1 = 0.331	0.516
298.15 K, 101.33 kPa, x1 = 0.3985	0.522
298.15 K, 101.33 kPa, x1 = 0.4971	0.535
298.15 K, 101.33 kPa, x1 = 0.5989	0.558
298.15 K, 101.33 kPa, x1 = 0.7005	0.587
298.15 K, 101.33 kPa, x1 = 0.8009	0.616
298.15 K, 101.33 kPa, x1 = 0.8988	0.657
303.15 K, 101 kPa, x1 = 0.622	0.52
303.15 K, 101.33 kPa, x1 = 0.1009	0.481
303.15 K, 101.33 kPa, x1 = 0.1995	0.485
303.15 K, 101.33 kPa, x1 = 0.331	0.488
303.15 K, 101.33 kPa, x1 = 0.3985	0.495
303.15 K, 101.33 kPa, x1 = 0.4971	0.5
303.15 K, 101.33 kPa, x1 = 0.5989	0.524
303.15 K, 101.33 kPa, x1 = 0.7005	0.552
303.15 K, 101.33 kPa, x1 = 0.8009	0.575
303.15 K, 101.33 kPa, x1 = 0.8988	0.617
308.15 K, 101.33 kPa, x1 = 0.1009	0.461
308.15 K, 101.33 kPa, x1 = 0.1995	0.462
308.15 K, 101.33 kPa, x1 = 0.331	0.464
308.15 K, 101.33 kPa, x1 = 0.3985	0.467
308.15 K, 101.33 kPa, x1 = 0.4971	0.476
308.15 K, 101.33 kPa, x1 = 0.5989	0.495
308.15 K, 101.33 kPa, x1 = 0.7005	0.521
308.15 K, 101.33 kPa, x1 = 0.8009	0.55
308.15 K, 101.33 kPa, x1 = 0.8988	0.581
313.15 K, 101 kPa, x1 = 0.3202	0.43
313.15 K, 101 kPa, x1 = 0.622	0.465
323.15 K, 101 kPa, x1 = 0.622	0.418
323.15 K, 101 kPa, x1 = 0.8145	0.462
323.15 K, 101 kPa, x1 = 0.9081	0.479

C=Cc1ccccc1 + CCCCCCCCC
viscosity [mPa·s], 101.33 kPa
Conditions	x1 = 0.0999	x1 = 0.2002	x1 = 0.2986	x1 = 0.3964	x1 = 0.4953	x1 = 0.5967	x1 = 0.6984	x1 = 0.7933	x1 = 0.8971
298.15 K	0.638	0.626	0.618	0.613	0.614	0.616	0.628	0.642	0.669
303.15 K	0.606	0.588	0.582	0.577	0.579	0.581	0.593	0.606	0.628
308.15 K	0.564	0.551	0.547	0.544	0.544	0.547	0.558	0.57	0.591

CCCCCCCl + C=C(C)C(=O)OC
303.15 K, 101 kPa
Conditions	viscosity [mPa·s]
x2 = 0.1343	0.6215
x2 = 0.1947	0.6053
x2 = 0.3625	0.5729
x2 = 0.4962	0.5511
x2 = 0.6029	0.5375
x2 = 0.8144	0.5199
x2 = 0.8988	0.5152

C=Cc1ccccc1 + ClC(Cl)Cl
viscosity [mPa·s], 101.33 kPa
Conditions	x1 = 0.101	x1 = 0.2004	x1 = 0.3009	x1 = 0.4022	x1 = 0.5055	x1 = 0.5997	x1 = 0.705	x1 = 0.7962	x1 = 0.9
298.15 K	0.5838	0.6109	0.6357	0.6615	0.6849	0.7054	0.7267	0.7443	0.7286
303.15 K	0.5575	0.5816	0.6033	0.628	0.6463	0.6686	0.6832	0.6993	0.6841
308.15 K	0.5324	0.5513	0.5742	0.5915	0.6109	0.6272	0.6447	0.6581	0.6521

BrC(Br)Br + Cc1ccccc1
viscosity [mPa·s], 101 kPa
Conditions	x1 = 0.1032	x1 = 0.1993	x1 = 0.2989	x1 = 0.3999	x1 = 0.4985	x1 = 0.5956	x1 = 0.6977	x1 = 0.7959	x1 = 0.8985
298.15 K	0.6593	0.7557	0.8686	0.9945	1.136	1.287	1.449	1.622	1.801
303.15 K	0.6236	0.7133	0.817	0.936	1.068	1.207	1.358	1.519	1.688
308.15 K	0.5877	0.6722	0.7592	0.8765	1.001	1.131	1.273	1.426	1.583
313.15 K	0.5544	0.6324	0.7238	0.8262	0.939	1.061	1.194	1.335	1.483

CC(=O)c1ccc(Cl)cc1 + CN(C)c1ccccc1
viscosity [mPa·s], 101 kPa
Conditions	303.15 K	308.15 K
x2 = 0.0685	2.238	2.175
x2 = 0.1369	2.129	2.065
x2 = 0.2085	2.019	1.954
x2 = 0.2801	1.913	1.849
x2 = 0.3517	1.816	1.752
x2 = 0.4754	1.663	1.597
x2 = 0.551	1.576	1.511
x2 = 0.6023	1.53	1.46
x2 = 0.6538	1.478	1.409
x2 = 0.7316	1.404	1.335
x2 = 0.7852	1.355	1.288
x2 = 0.8376	1.307	1.243
x2 = 0.9175	1.24	1.177

From the CheMixHub viscosity set
